The source of these data is US20130337564A1, “Treatment of Pluripotent Cells” (Janssen Biotech, Inc., priority 2012, published 2013).

Each structure is given as a SMILES string. Values joined by “and” are separate entries in the source; they are usually repeats but may differ in a detail not shown here. Equal values may be shown once.

For this experiment, the system named is human embryonic stem cells (H9 or H1 lines). The experiment can be described thus: Plate reader (MTS) proliferation assay. It is filed as cell-based. The conditions noted are these: for Average: average of replicate raw data; for activity at 10 µM: Homo sapiens, Embryonic stem cell, 96 h; for activity at 10 µM / % Control Value (proliferation): 10 μM test compound with 100 ng/ml activin A on days 1-2, MTS OD490 on day 4, vs Activin A/Wnt3a positive control, strong and moderate hits; for Average (of Raw Data): plate reader raw signal, mean of replicate wells; for Raw Data: replicate wells, plate reader proliferation screen of GSK-3B inhibitors. The essentials: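 H9 or H1 cells on Matrigel, washed, then given DMEM:F12 with 0.5% FCS, 100 ng/ml activin A and 10 μM compound (days 1–2), then 2% FCS plus activin A (days 3–4). MTS added day 4, OD490 read after 1.5–4 h at 37 °C; triplicates as percent of activin A/Wnt3a control.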

The mark [1] stands for this setting: proliferation of human embryonic stem cells.

For `O=C1NC(=O)C(c2cn(CCCO)c3ncccc23)=C1c1cn(CCO)cn1` [Compound 183, 3-[1-(2-Hydroxyethyl)-1H-imidazol-4-yl]-4-[1-(3-hydroxypropyl)-1H-pyrrolo[2,3-b]pyridin-3-yl]-1H-pyrrole-2,5-dione], the Average is reported as 0.2321.

For `O=C(Nc1ccc(C(=O)N2CC3CSCCN3Cc3ccccc32)c(Cl)c1)c1cc(Cl)cc(Cl)c1` (centres unmarked) [Compound 166, 3,5-Dichloro-N-[3-chloro-4-(3,4,12,12a-tetrahydro-1H-[1,4]thiazino[3,4-c][1,4]benzodiazepin-11(6H)-ylcarbonyl)phenyl]benzamide], the activity at 10 µM was 180% and the Average is given as 1.6794.

On to `COc1ccccc1C1=C(c2cn(-c3ccc4ccccc4c3)c3ncccc23)C(=O)NC1=O` [Compound 23, 3-[2-(Methyloxy)phenyl]-4-(1-naphthalen-2-yl-1H-pyrrolo[2,3-b]pyridin-3-yl)-1H-pyrrole-2,5-dione], for which the “Average (of Raw Data)” value under setting [1] is 0.4714.

Consider `O=C1NC(=O)C2=C1c1cn(c3ncccc13)CCOCCOCCOCCOCCn1cc2c2cccnc21` [Compound 169], for which the “% Control Value (proliferation)” value was 76.7%; the Average stood at 0.7138; the “Raw Data” value is 0.5876 and 0.6384 and 0.9154. In addition, the “Average (of Raw Data)” value under setting [1] is on record as 0.3354. Moreover, the “% Control” value (proliferation of human embryonic stem cells, AA/Wnt3a = 100.0, no cells = 0.0) is reported as 24.4%.

With `COc1ccccc1C1=C(c2cn(-c3cccnc3)c3ccccc23)C(=O)NC1=O` [Compound 216, 3-[2-(Methyloxy)phenyl]-4-(1-pyridin-3-yl-1H-indol-3-yl)-1H-pyrrole-2,5-dione], the activity at 10 µM is 76.9% and the Average is reported as 1.1235.

As for `Cn1cc(C2=C(c3nn(CCCn4ccnn4)c4ccccc34)C(=O)NC2=O)c2cc(Cl)ccc21` [Compound 232, 3-(5-Chloro-1-methyl-1H-indol-3-yl)-4-{1-[3-(1H-1,2,3-triazol-1-yl)propyl]-1H-indazol-3-yl}-1H-pyrrole-2,5-dione], the activity at 10 µM is 132% and the Average came out at 1.8323.

As to `O=C1NC(=O)C2=C1c1cn(c3ccccc13)CCOCCOCCOCCn1cc2c2ccccc21` [Compound 163, 6,7,9,10,12,13,15,16-Octahydro-23H-5,26:17,22-di(metheno)dibenzo[k,q]pyrrolo[3,4-n][1,4,7,10,19]trioxadiazacyclohenicosine-23,25(24H)-dione], the “% Control Value (proliferation)” value amounted to 142.3%; the Average was 1.3242; the “Raw Data” value is 1.3764 and 1.2753 and 1.3208.

In turn, `O=C1NC(=O)C(c2cn(CCCO)c3ncccc23)=C1c1ccn(CCCO)n1` [Compound 185, 3-[1-(3-Hydroxypropyl)-1H-pyrazol-3-yl]-4-[1-(3-hydroxypropyl)-1H-pyrrolo[2,3-b]pyridin-3-yl]-1H-pyrrole-2,5-dione] gave an Average of 0.2632.

As to `O=C1NC(=O)C2=C1c1cn(c3ccccc13)CCOCCOCCn1cc2c2ccccc21` [Compound 164, 6,7,9,10,12,13-Hexahydro-20H-5,23:14,19-di(metheno)dibenzo[h,n]pyrrolo[3,4-k][1,4,7,16]dioxadiazacyclooctadecine-20,22(21H)-dione], the “% Control Value (proliferation)” value was 68.2%; the Average is reported as 0.6350; the “Raw Data” value was 0.6923 and 0.5994 and 0.6134.

Take `O=C1NC(=O)C2=C1c1cn(c3ncccc13)CCOCCOCCOCCOCCOCCn1cc2c2cccnc21` [Compound 168, 10,11,13,14,16,17,19,20,22,23,25,26-Dodecahydro-1H-9,4:27,32-di(metheno)dipyrido[2,3-q:3′,2′-w]pyrrolo[3,4-t][1,4,7,10,13,16,25]pentaoxadiazacycloheptacosine-1,3(2H)-dione]: the Average was found to be 0.3421; the “Raw Data” value was 0.3702 and 0.3193 and 0.3368. Further, where the note is “relative to AA/Wnt3a/DMSO positive control (100.0) of the same plate”, the “% Control” value is listed as 36.8%.
